Data reported in ChEMBL document CHEMBL3885881, “DrugMatrix”.

Species: Rattus norvegicus
Type: toxicity, organism-based, Sprague-Dawley
Settings: in vivo, po, route oral GAVAGE, vehicle 100 % SALINE; for ABSOLUTE EOSINOPHIL / ABSOLUTE LYMPHOCYTE / ABSOLUTE MONOCYTE / ABSOLUTE SEGMENTED NEUTROPHIL / BASOPHIL / EOSINOPHIL / ERYTHROCYTE COUNT / HEMATOCRIT / HEMOGLOBIN / LEUKOCYTE COUNT / LYMPHOCYTE / MEAN CORPUSCULAR HEMOGLOBIN / MEAN CORPUSCULAR HEMOGLOBIN CONCENTRATION / MONOCYTE / NEUTROPHIL / NUCLEATED RED BLOOD CELLS / PLATELET COUNT: tissue Blood; for ALANINE AMINOTRANSFERASE / ALBUMIN / ALKALINE PHOSPHATASE / ASPARTATE AMINOTRANSFERASE / BLOOD UREA NITROGEN / CARBON DIOXIDE / CHLORIDE / CHOLESTEROL / CREATINE PHOSPHOKINASE / CREATININE / GLUCOSE / LACTATE DEHYDROGENASE / LIPASE / PHOSPHORUS / POTASSIUM / SODIUM / TOTAL BILIRUBIN / TOTAL PROTEIN / URIC ACID: tissue Plasma
[1] = 0 mg/kg, 6 h, vehicle control, dose level Control, time 0.25 day
[2] = 0 mg/kg, 24 h, vehicle control, dose level Control, time 1 day
[3] = 700 mg/kg, 6 h, dose level Low, time 0.25 day

Description: DrugMatrix - Regimen: Single

Q: For `CN(C)C=O` [DIMETHYLFORMAMIDE], which “ABSOLUTE EOSINOPHIL” value [1] is on record?
A: 24 CELLS/uL

Q: And the “ABSOLUTE LYMPHOCYTE” value [1]?
A: 11958.17 CELLS/uL

Q: What about the “ABSOLUTE MONOCYTE” value [1] of the same compound?
A: 398.83 CELLS/uL

Q: What about the “ABSOLUTE SEGMENTED NEUTROPHIL” value [1] of the same compound?
A: 1252.33 CELLS/uL

Q: What about the BASOPHIL [1] of the same compound?
A: 0%

Q: What about the EOSINOPHIL [1] of the same compound?
A: 0.17%

Q: And the “ERYTHROCYTE COUNT” value [1]?
A: 5.37 x10E6/uL

Q: What about the HEMATOCRIT [1] of the same compound?
A: 35.6%

Q: And the HEMOGLOBIN [1]?
A: 13.05 G/DL

Q: What about the “LEUKOCYTE COUNT” value [1] of the same compound?
A: 13.63 x10E3/uL

Q: What about the LYMPHOCYTE [1] of the same compound?
A: 87.67%

Q: And the “MEAN CORPUSCULAR HEMOGLOBIN” value [1]?
A: 24.28 pg

Q: And the “MEAN CORPUSCULAR HEMOGLOBIN CONCENTRATION” value [1]?
A: 36.67 G/DL

Q: And the MONOCYTE [1]?
A: 2.83%

Q: And the NEUTROPHIL [1]?
A: 9.33%

Q: And the “NUCLEATED RED BLOOD CELLS” value [1]?
A: 0 /100WBC

Q: What about the “PLATELET COUNT” value [1] of the same compound?
A: 947.83 x10E3/uL

Q: What about the “ALANINE AMINOTRANSFERASE” value [1] of the same compound?
A: 51 u/L

Q: What about the ALBUMIN [1] of the same compound?
A: 4.02 G/DL

Q: What about the “ALKALINE PHOSPHATASE” value [1] of the same compound?
A: 312.33 u/L

Q: And the “ASPARTATE AMINOTRANSFERASE” value [1]?
A: 98.17 u/L

Q: And the “BLOOD UREA NITROGEN” value [1]?
A: 9.5 mg/dL

Q: And the “CARBON DIOXIDE” value [1]?
A: 18.83 mmol/L

Q: What about the CHLORIDE [1] of the same compound?
A: 103.5 MEQ/L

Q: And the CHOLESTEROL [1]?
A: 69.5 mg/dL

Q: What about the “CREATINE PHOSPHOKINASE” value [1] of the same compound?
A: 580.17 u/L

Q: What about the CREATININE [1] of the same compound?
A: 0.53 mg/dL

Q: What about the GLUCOSE [1] of the same compound?
A: 175.67 mg/dL

Q: And the “LACTATE DEHYDROGENASE” value [1]?
A: 295.5 u/L

Q: What about the LIPASE [1] of the same compound?
A: 8.17 u/L

Q: And the PHOSPHORUS [1]?
A: 14.12 mg/dL

Q: What about the POTASSIUM [1] of the same compound?
A: 5.77 MEQ/L

Q: What about the SODIUM [1] of the same compound?
A: 144.13 MEQ/L

Q: And the “TOTAL BILIRUBIN” value [1]?
A: 0.12 mg/dL

Q: And the “TOTAL PROTEIN” value [1]?
A: 4.87 G/DL

Q: And the “URIC ACID” value [1]?
A: 2.25 mg/dL

Q: And the “ABSOLUTE EOSINOPHIL” value [2]?
A: 0 CELLS/uL

Q: And the “ABSOLUTE LYMPHOCYTE” value [2]?
A: 12232.83 CELLS/uL

Q: What about the “ABSOLUTE SEGMENTED NEUTROPHIL” value [2] of the same compound?
A: 780.17 CELLS/uL

Q: And the BASOPHIL [2]?
A: 0%

Q: What about the EOSINOPHIL [2] of the same compound?
A: 0%

Q: And the “ERYTHROCYTE COUNT” value [2]?
A: 5.18 x10E6/uL

Q: What about the HEMATOCRIT [2] of the same compound?
A: 33.48%

Q: And the HEMOGLOBIN [2]?
A: 13.22 G/DL

Q: What about the “LEUKOCYTE COUNT” value [2] of the same compound?
A: 13.03 x10E3/uL

Q: What about the LYMPHOCYTE [2] of the same compound?
A: 93.33%

Q: What about the “MEAN CORPUSCULAR HEMOGLOBIN” value [2] of the same compound?
A: 25.57 pg

Q: What about the “MEAN CORPUSCULAR HEMOGLOBIN CONCENTRATION” value [2] of the same compound?
A: 39.52 G/DL

Q: And the MONOCYTE [2]?
A: 0.17%

Q: And the NEUTROPHIL [2]?
A: 6.5%

Q: And the “NUCLEATED RED BLOOD CELLS” value [2]?
A: 0 /100WBC

Q: What about the “PLATELET COUNT” value [2] of the same compound?
A: 931.5 x10E3/uL

Q: And the “ALANINE AMINOTRANSFERASE” value [2]?
A: 60.83 u/L

Q: And the ALBUMIN [2]?
A: 4.18 G/DL

Q: And the “ALKALINE PHOSPHATASE” value [2]?
A: 283.33 u/L

Q: What about the “ASPARTATE AMINOTRANSFERASE” value [2] of the same compound?
A: 80.5 u/L

Q: And the “BLOOD UREA NITROGEN” value [2]?
A: 11.83 mg/dL

Q: And the “CARBON DIOXIDE” value [2]?
A: 35.33 mmol/L

Q: And the CHLORIDE [2]?
A: 98.5 MEQ/L

Q: And the CHOLESTEROL [2]?
A: 80 mg/dL

Q: What about the “CREATINE PHOSPHOKINASE” value [2] of the same compound?
A: 181.83 u/L

Q: And the CREATININE [2]?
A: 0.2 mg/dL

Q: What about the GLUCOSE [2] of the same compound?
A: 142.67 mg/dL

Q: And the “LACTATE DEHYDROGENASE” value [2]?
A: 65.5 u/L

Q: What about the LIPASE [2] of the same compound?
A: 9.83 u/L

Q: What about the PHOSPHORUS [2] of the same compound?
A: 9.82 mg/dL

Q: And the POTASSIUM [2]?
A: 5.69 MEQ/L

Q: And the SODIUM [2]?
A: 143.35 MEQ/L

Q: What about the “TOTAL BILIRUBIN” value [2] of the same compound?
A: 0.15 mg/dL

Q: What about the “TOTAL PROTEIN” value [2] of the same compound?
A: 6.2 G/DL

Q: And the “URIC ACID” value [2]?
A: 0.42 mg/dL

Q: And the “ABSOLUTE EOSINOPHIL” value [3]?
A: 9.5 CELLS/uL

Q: What about the “ABSOLUTE LYMPHOCYTE” value [3] of the same compound?
A: 11164.33 CELLS/uL

Q: And the “ABSOLUTE MONOCYTE” value [3]?
A: 139.17 CELLS/uL

Q: What about the “ABSOLUTE SEGMENTED NEUTROPHIL” value [3] of the same compound?
A: 1270.33 CELLS/uL

Q: And the BASOPHIL [3]?
A: 0%

Q: What about the EOSINOPHIL [3] of the same compound?
A: 0.17%

Q: What about the “ERYTHROCYTE COUNT” value [3] of the same compound?
A: 5.55 x10E6/uL

Q: And the HEMATOCRIT [3]?
A: 36.67%

Q: What about the HEMOGLOBIN [3] of the same compound?
A: 12.92 G/DL

Q: What about the “LEUKOCYTE COUNT” value [3] of the same compound?
A: 12.58 x10E3/uL

Q: What about the LYMPHOCYTE [3] of the same compound?
A: 88.83%

Q: And the “MEAN CORPUSCULAR HEMOGLOBIN” value [3]?
A: 23.45 pg

Q: And the “MEAN CORPUSCULAR HEMOGLOBIN CONCENTRATION” value [3]?
A: 35.43 G/DL

Q: And the MONOCYTE [3]?
A: 1%

Q: What about the NEUTROPHIL [3] of the same compound?
A: 10%

Q: What about the “NUCLEATED RED BLOOD CELLS” value [3] of the same compound?
A: 0 /100WBC

Q: And the “PLATELET COUNT” value [3]?
A: 1098.83 x10E3/uL

Q: What about the “ALANINE AMINOTRANSFERASE” value [3] of the same compound?
A: 66.17 u/L

Q: And the ALBUMIN [3]?
A: 4.17 G/DL

Q: And the “ALKALINE PHOSPHATASE” value [3]?
A: 259.5 u/L

Q: What about the “ASPARTATE AMINOTRANSFERASE” value [3] of the same compound?
A: 125.5 u/L

Q: What about the “BLOOD UREA NITROGEN” value [3] of the same compound?
A: 9.33 mg/dL

Q: And the “CARBON DIOXIDE” value [3]?
A: 17.83 mmol/L

Q: What about the CHLORIDE [3] of the same compound?
A: 103 MEQ/L

Q: And the CHOLESTEROL [3]?
A: 67.67 mg/dL

Q: And the “CREATINE PHOSPHOKINASE” value [3]?
A: 882.33 u/L

Q: And the CREATININE [3]?
A: 0.3 mg/dL

Q: And the GLUCOSE [3]?
A: 174.5 mg/dL

Q: And the “LACTATE DEHYDROGENASE” value [3]?
A: 297.17 u/L

Q: What about the LIPASE [3] of the same compound?
A: 9.83 u/L

Q: And the PHOSPHORUS [3]?
A: 15.98 mg/dL

Q: What about the POTASSIUM [3] of the same compound?
A: 6.92 MEQ/L

Q: What about the SODIUM [3] of the same compound?
A: 144.05 MEQ/L

Q: What about the “TOTAL BILIRUBIN” value [3] of the same compound?
A: 0.13 mg/dL

Q: What about the “TOTAL PROTEIN” value [3] of the same compound?
A: 5.7 G/DL

Q: What about the “URIC ACID” value [3] of the same compound?
A: 3.3 mg/dL
